Here are results for 1 compound from patent publication US10369163B2, “Anti-fatigue composition” (AJINOMOTO CO., INC., priority 2013, dated 2019).

SMILES strings stand for the structures.

Data set [1] concerns males feeling decrease in the quality of sleep and fatigue. The data set can be described thus: Crossover test of histidine ingestion for 14 days (POMS, VAS questionnaires, CogHealth). It counts as in vivo, human. From the text: Twenty males of 45 years old to less than 65 years old, who received total evaluation of not less than 17 points in the “self-diagnosis fatigue questionnaire” (Fatigue Science Laboratory Inc.), felt decrease in the quality of sleep (generally PSQI≥6), and obtained fatigue factor T scores of not less than 60 points in POMS, performed in advance, were selected, and randomly divided into 2 groups (10 per group). A crossover test, including ingesting histidine and control food (equal volume of cellulose) each for 14 days, was performed in each group. As shown in the experiment protocol of FIG. 9A, the test subjects ingested capsules containing 1.65 g of L-histidine as a daily ingestion amount (5 capsules (hard capsule #2 WHITE OP B/C) containing 0.33 g of L-histidine alone), or control sample capsules (5 capsules containing equal volume of cellulose) for 14 days. After the completion of 14 day ingestion, a 14 day resting period was taken. After the resting period, they ingested the capsules not ingested before the resting period. On the initial day and the day after completion of the capsule ingestion period, the test subjects answered POMS and the VAS questionnaires (fatigue, depression, vague sense, drowsiness, clear thinking, motivation, attentiveness, concentration) relating to fatigue, and cognitive function measurement task CogHealth (under higher difficulty conditions by simultaneously including mental arithmetic task as well) to measure intellectual performance which is one of the fatigue indices. Furthermore, they answered VAS questionnaires after completion of CogHealth.

The test system is the same in data set [2]. The data set can be described thus: Single histidine ingestion (VAS questionnaires, CogHealth). It counts as in vivo, human. From the text:
Twenty males of 45 years old to less than 65 years old, who received total evaluation of not less than 17 points in the “self-diagnosis fatigue questionnaire” (Fatigue Science Laboratory Inc.), felt decrease in the quality of sleep (generally PSQI≥6), and obtained fatigue factor T scores of not less than 60 points in POMS performed in advance, were selected, and randomly divided into 2 groups (10 per group). The effect of single ingestion of histidine and control food (equal volume of cellulose) was compared in each group. As shown in the experiment protocol of FIG. 10A, the test subjects took the same meals for 3 days before the experiment, fasted for 10 to for 14 hr, and ingested capsules containing 1.65 g of L-histidine as a single ingestion amount (5 capsules (hard capsule #2 WHITE OP B/C) containing 0.33 g of L-histidine alone), or control sample capsules (5 capsules containing equal volume of cellulose). Before and 1 hr after ingestion of capsules, the test subjects answered the VAS questionnaires (fatigue, depression, vague sense, drowsiness, clear thinking, motivation, attentiveness, concentration) relating to fatigue, and cognitive function measurement task CogHealth (under higher difficulty conditions by simultaneously including mental arithmetic task as well) to measure intellectual performance which is one of the fatigue indices. Furthermore, they answered VAS questionnaires after completion of CogHealth.

Data set [3] is described as follows: Safety of His ingestion: general properties, hematology, blood biochemistry. It counts as in vivo, human. Conditions: ingestion of His (1.65 g, single or 14 days) in test subjects.
Another data set deals with CD2F1 mice. Kind of data set: Y-maze test, short-working memory (alternation behavior) after 48 hr burden of insufficient sleep. Format: in vivo, mouse. Conditions: His:VB6=360:1; His 900, VB6 2.5 mg/kg/day one week plus oral dose; FIG. 7B. The protocol: Using CD2F1 mice (9-10-week-old) in the group constitution shown in Table 4, the test was performed as shown in the experiment protocol (FIG. 4A). The His group and His+VB6 group were allowed to drink each solution freely for one week so that the ingestion amount of His would be 900 mg/kg/day, and the ingestion amount of the VB6 group and the His+VB6 group would be […]. As the feed, a feed having the composition of Table 5 was used. After ingestion of His or VB6, or both for one week, insufficient sleep was burdened for 48 hr by filling water in the breeding cage at the depth of 0.5 cm. The burden was released at 6 hr from the start of the light phase, and the mice were placed back in the home cage and allowed to rest for 6 hr. […] A Y-maze test was performed at 3 hr from the start of the dark phase, and short-working memory was measured. […] A Y-maze test was performed at 3 hr from the start of the dark phase, and short-working memory was measured. […] A Y-maze test was performed at 3 hr from the start of the dark phase, and short-working memory was measured. […] A Y-maze test was performed at 3 hr from the start of the dark phase, and short-working memory was measured. […]

Setting [4] is: 14 days, after completion of CogHealth, p<0.05, FIG. 9E.
Where [5] appears, read: 14 days, before CogHealth, vs control food, p<0.05, FIG. 9C.
Where [6] appears, read: single ingestion, after completion of CogHealth.
[7] abbreviates: single ingestion, before CogHealth, p<0.05, FIG. 10B.

On to `N[C@@H](Cc1c[nH]cn1)C(=O)O` [His, histidine], for which, in data set [1] (1.65 g L-histidine daily for 14 days vs control food, paired t-test p<0.05, FIG. 9B), the “fatigue factor scores of POMS” value is given as “significantly decreased”. Moreover, the “reaction time of cognitive function measurement task” value in data set [1] (14 days, CogHealth, vs control food, FIG. 9D) is on record as “shortened”. The “reaction time of delayed recall task” value in data set [1] (14 days, CogHealth, vs control food, p<0.05, FIG. 9D) was “significantly decreased”. Also, in data set [1] (setting [4]), the “VAS sense of attentiveness” value was “significantly increased”, the “VAS sense of depression” value is listed as “significantly decreased” and the “VAS sense of motivation” value is listed as “significantly increased”. Besides, in data set [1] (setting [5]), the “VAS sense of attentiveness” value is “significantly increased”, the “VAS sense of clear thinking” value was “significantly increased” and the “VAS sense of motivation” value is reported as “significantly increased”. Besides, in data set [2] (single 1.65 g L-histidine, 1 hr after ingestion, vs control food), the “work time in 5 kinds of brain function measurement indices” value is listed as “shortened”. In data set [2] (setting [6]), the “VAS sense of concentration” value is “tended to increase” and the “VAS sense of depression” value is recorded as “tended to decrease”. In addition, the VAS vague sense entry in data set [2] (single ingestion, after completion of CogHealth, p<0.05) is “significantly decreased”. In data set [2] (single ingestion, before CogHealth, FIG. 10B), the “VAS sense of concentration” value was “tended to increase”. Besides, in data set [2] (setting [7]), the “VAS sense of attentiveness” value was “significantly increased” and the “VAS sense of clear thinking” value was “significantly increased”. The “variation in general properties, hematology, and blood biochemistry” value in data set [3] was “did not show problematic variation”. Also, the “alternation behavior as compared to the VB6 group” value in the data set with CD2F1 mice is “significant increase”.
